For 14 compounds, EC50 and Time results are on record in ChEMBL document CHEMBL4371004, “A-C Estrogens as Potent and Selective Estrogen Receptor-Beta Agonists (SERBAs) to Enhance Memory Consolidation under Low-Estrogen Conditions” (J Med Chem, 2018).

Assay [1] deals with T1, Estrogen receptor (Homo sapiens, UniProt P03372).
T1 sequence (P03372 whole entry): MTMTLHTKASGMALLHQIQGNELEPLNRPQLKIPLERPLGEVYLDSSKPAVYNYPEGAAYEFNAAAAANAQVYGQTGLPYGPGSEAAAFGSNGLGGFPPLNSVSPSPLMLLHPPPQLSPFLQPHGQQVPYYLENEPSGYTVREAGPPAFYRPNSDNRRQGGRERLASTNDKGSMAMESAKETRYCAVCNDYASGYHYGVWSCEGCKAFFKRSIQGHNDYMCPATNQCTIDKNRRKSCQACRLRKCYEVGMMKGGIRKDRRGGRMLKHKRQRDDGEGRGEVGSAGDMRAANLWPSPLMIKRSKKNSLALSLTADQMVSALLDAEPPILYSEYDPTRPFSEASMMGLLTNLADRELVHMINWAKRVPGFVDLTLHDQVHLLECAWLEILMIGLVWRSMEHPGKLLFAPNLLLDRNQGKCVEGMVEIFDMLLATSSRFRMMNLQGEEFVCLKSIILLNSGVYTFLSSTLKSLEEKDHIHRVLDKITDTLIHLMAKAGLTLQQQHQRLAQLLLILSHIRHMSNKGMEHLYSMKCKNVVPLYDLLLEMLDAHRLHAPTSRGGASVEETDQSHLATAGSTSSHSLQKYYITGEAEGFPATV
Description: Agonist activity at estrogen receptor alpha (unknown origin) after 22 hrs by cell-based luciferase reporter gene assay

Assay [2] addresses T1, Estrogen receptor. This is another data set of the same source.
The target in assay [3] is T2, Estrogen receptor beta (Homo sapiens, UniProt Q92731).
T2 sequence (Q92731 whole entry): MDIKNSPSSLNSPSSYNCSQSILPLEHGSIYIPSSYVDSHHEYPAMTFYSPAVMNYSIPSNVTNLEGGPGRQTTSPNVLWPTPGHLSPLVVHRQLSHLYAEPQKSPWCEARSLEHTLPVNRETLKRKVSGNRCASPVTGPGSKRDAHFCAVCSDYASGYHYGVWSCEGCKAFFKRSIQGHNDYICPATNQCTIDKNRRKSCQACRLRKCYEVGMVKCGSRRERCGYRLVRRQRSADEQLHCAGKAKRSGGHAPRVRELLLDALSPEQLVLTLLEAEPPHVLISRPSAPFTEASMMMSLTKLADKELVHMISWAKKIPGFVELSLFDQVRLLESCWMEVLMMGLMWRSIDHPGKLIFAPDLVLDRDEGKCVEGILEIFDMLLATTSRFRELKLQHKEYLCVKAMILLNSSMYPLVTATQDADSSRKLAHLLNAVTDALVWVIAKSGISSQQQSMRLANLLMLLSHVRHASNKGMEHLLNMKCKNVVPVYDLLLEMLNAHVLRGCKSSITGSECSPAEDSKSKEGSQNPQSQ
Assay [4] concerns the target T2, Estrogen receptor beta. The source holds these as a separate data set.
Assay [5] relates to Mus musculus. In words: Memory enhancement effect in C57BL/6 mouse assessed as time spent with moved object at 10 pg administered as dorsal hippocampal infusion by novel object recognition test. In kind it is functional.
Assay [6] relates to Mus musculus. In words: Memory enhancement effect in C57BL/6 mouse assessed as time spent with novel object at 10 pg administered as dorsal hippocampal infusion by novel object recognition test. In kind it is functional.
The test system of assay [7] is Mus musculus. Description: Memory enhancement effect in C57BL/6 mouse assessed as time spent with moved object at 0.05 mg/kg, ip by novel object recognition test. In kind it is functional.
For assay [8], the system named is Mus musculus. In words: Memory enhancement effect in C57BL/6 mouse assessed as time spent with novel object at 0.05 mg/kg, ip by novel object recognition test. Format: functional.
In assay [9] the test system is Mus musculus. In words: Memory enhancement effect in C57BL/6 mouse assessed as time spent with moved object at 0.05 mg/kg, po administered via gavage by object recognition test. In kind it is functional.
The test system of assay [10] is Mus musculus. Description: Memory enhancement effect in C57BL/6 mouse assessed as time spent with novel object at 0.05 mg/kg, po administered via gavage by novel object recognition test. In kind it is functional.

The EC50 is the concentration giving half of the maximal effect. Low values mean a more potent agent, high ones a less potent agent. Regarding `C=C1CCC(c2ccc(O)cc2)CC1`, the concentration giving a half-maximal response (EC50) at Estrogen receptor [1] and on Estrogen receptor [2] was over 10 µM throughout.
Consider `Oc1ccc([C@]23CC[C@H](CC2)CO3)cc1`, for which, at Estrogen receptor beta [3], the concentration giving a half-maximal response (EC50) came to 0.25 µM.
`ON=C1CCC(c2ccc(O)cc2)CC1` (stereo not drawn) gave an EC50 at Estrogen receptor beta [4] of 1.57 µM.
For `CC1CCC(c2ccc(O)cc2)CC1` (stereo not drawn), the concentration giving a half-maximal response (EC50) at Estrogen receptor [1] and on Estrogen receptor [2] was over 10 µM in each case.
In the case of `OCC1CC=C(c2ccc(O)cc2)CC1` (racemic), the EC50 was over 20 µM at Estrogen receptor [1] and over 10 µM on Estrogen receptor [2].
For the compound `OC[C@]1(O)CC[C@H](c2ccc(O)cc2)CC1`, the EC50 on Estrogen receptor beta [3] stood at 2.7 µM.
`C[C@]1(O)CC[C@@H](c2ccc(O)cc2)CC1` gave an EC50 at Estrogen receptor beta [3] of 6.29 µM.
In the case of `N#CC(Cc1ccc(O)cc1)c1ccc(O)cc1` (stereo not drawn) [DIARYLPROPIONITRILE], the Time with Mus musculus [5] was 4.5 s; in the assay on Mus musculus [6], 2.35 s; in the assay with Mus musculus [7], 3.2 s; in the assay with Mus musculus [8] it was 3.52 s; with Mus musculus [9] it was 2.76 s; in the assay on Mus musculus [10], 3.89 s.
On Estrogen receptor beta [4], `OCC=C1CCC(c2ccc(O)cc2)CC1` (racemic) came in with a half-maximal effective concentration (EC50) of 0.68 µM.
With `C=C1CCC(c2ccc(O)c(C=O)c2)CC1`, the EC50 on Estrogen receptor beta [3] worked out at 21 µM.
Still for that read-out and setting: as for `O=C1CCC(c2ccc(O)cc2)CC1`, the figure is 19 µM; as for `Oc1ccc([C@H]2CC[C@H](O)CC2)cc1`, 7.52 µM.
Take `OCCC1CCC(c2ccc(O)cc2)CC1` (stereo not drawn): the EC50 at Estrogen receptor [1] was over 50 µM; at Estrogen receptor [2], over 10 µM.
On to `C=C1CCC(c2ccc(O)c(/C=N/O)c2)CC1`, for which the midpoint of the response at Estrogen receptor beta [3], the EC50, lay at 0.225 µM.
